In the supplement of paper PMC13380429:

What was measured:
Settings in all cases: 72 h
Caco-2 [1] = test: cell viability relative to DMSO; higher = less toxic
Calu-3 [2] = test: as above
HepG2 [3] = test: as above
U2OS [4] = test: as above
Vero E6 [5] = test: as above
Caco-2 [6] = test: relative viability EC50 (midpoint between 100% and the lowest measured viability); higher = less toxic
Calu-3 [7] = test: as above
HepG2 [8] = test: as above
U2OS [9] = test: as above
Vero E6 [10] = test: as above
Caco-2 [11] = test: drug sensitivity score (DSS) for viability; higher = more toxic; extreme values may be limits of the assay
Calu-3 [12] = test: as above
HepG2 [13] = test: as above
U2OS [14] = test: as above
Vero E6 [15] = test: as above

SMILES	cell viability (Caco-2 [1]; 1 nM) [%]	cell viability (Caco-2 [1]; 10 nM) [%]	cell viability (Caco-2 [1]; 100 nM) [%]	cell viability (Caco-2 [1]; 1000 nM) [%]	cell viability (Caco-2 [1]; 10000 nM) [%]	cell viability (Calu-3 [2]; 1 nM) [%]	cell viability (Calu-3 [2]; 10 nM) [%]	cell viability (Calu-3 [2]; 100 nM) [%]	cell viability (Calu-3 [2]; 1000 nM) [%]	cell viability (Calu-3 [2]; 10000 nM) [%]	cell viability (HepG2 [3]; 1 nM) [%]	cell viability (HepG2 [3]; 10 nM) [%]	cell viability (HepG2 [3]; 100 nM) [%]	cell viability (HepG2 [3]; 1000 nM) [%]	cell viability (HepG2 [3]; 10000 nM) [%]	cell viability (U2OS [4]; 1 nM) [%]	cell viability (U2OS [4]; 10 nM) [%]	cell viability (U2OS [4]; 100 nM) [%]	cell viability (U2OS [4]; 1000 nM) [%]	cell viability (U2OS [4]; 10000 nM) [%]	cell viability (Vero E6 [5]; 1 nM) [%]	cell viability (Vero E6 [5]; 10 nM) [%]	cell viability (Vero E6 [5]; 100 nM) [%]	cell viability (Vero E6 [5]; 1000 nM) [%]	cell viability (Vero E6 [5]; 10000 nM) [%]	relative viability EC50 (Caco-2 [6]) [µM]	relative viability EC50 (Calu-3 [7]) [µM]	relative viability EC50 (HepG2 [8]) [µM]	relative viability EC50 (U2OS [9]) [µM]	relative viability EC50 (Vero E6 [10]) [µM]	drug sensitivity score (Caco-2 [11])	drug sensitivity score (Calu-3 [12])	drug sensitivity score (HepG2 [13])	drug sensitivity score (U2OS [14])	drug sensitivity score (Vero E6 [15])
OCCN1CCN(CCCN2c3ccccc3C=Cc3ccccc32)CC1 [opipramol]	89.8	102	88.6	100	76.6	100	93.3	99.7	100	98	107	104	98	91.4	92.1	97.6	95.6	101	103	97	107	99.8	104	98.5	83.9	> 10	> 10	> 10	> 10	> 10	0.8	0	0	0	0.5
Cc1cnc(C(=O)N[C@H]2CCCCC/C=C\[C@@H]3C[C@@]3(C(=O)NS(=O)(=O)C3CC3)NC(=O)[C@@H]3C[C@@H](Oc4nc5ccccc5c5ccccc45)CN3C2=O)cn1 [paritaprevir]	110	94.8	103	95	99.1	110	108	107	99.9	102	108	96.8	105	94.7	109	105	105	107	94.8	96.4	99.8	93.9	97	94	98.8	> 10	> 10	> 10	> 10	> 10	0	0	0	0	0
CCOc1ccc(NC(C)=O)cc1 [phenacetin]	105	81.8	101	110	85.9	90.3	90.8	99.5	94.3	104	95.8	77.6	90.8	93.7	84.1	100	94.6	90.2	90.3	97.8	109	102	108	96	102	> 10	> 10	> 10	> 10	> 10	0.1	0	0	0	0
O=S1(=O)OC(c2ccc(O)cc2)(c2ccc(O)cc2)c2ccccc21 [phenolsulfonphthalein]	102	108	96.1	93.7	87.9	108	104	83.5	110	93.2	99.3	94.5	99.3	99.6	93.5	99.5	104	98	103	96.4	105	102	100	93.8	100	> 10	> 10	> 10	> 10	> 10	0.1	0	0	0	0
O=C(O)CCCc1ccccc1 [phenylbutyrate]	79.8	100	90.4	97	107	94.6	112	113	109	105	111	81.8	105	104	96.1	99.9	105	104	103	103	106	95.6	104	93.2	106	> 10	> 10	> 10	> 10	> 10	0	0	0	0	0
CC(=O)NS(=O)(=O)c1ccc(NC(=O)c2ccccc2C(=O)O)cc1 [phthalylsulfacetamide]	91.3	98.4	94.2	96.4	94.3	100	102	96.8	108	101	102	104	91.6	105	101	98.8	94.6	103	99.2	102	102	109	98.2	104	102	> 10	> 10	> 10	> 10	> 10	0	0	0	0	0
COc1ccc(C(=O)NCc2cccnc2)cc1C(=O)NCc1cccnc1 [picotamide]	101	87.9	87	120	98.6	97.3	97.8	103	102	111	102	99.5	120	119	97	97.9	95	92.8	101	105	99.7	101	109	98.7	103	> 10	> 10	> 10	> 10	> 10	0	0	0	0	0
COc1cccc2c1C(=O)c1c(O)c3c(c(O)c1C2=O)C[C@@](O)(C(=O)CO)C[C@@H]3O[C@H]1C[C@H](N)[C@H](O[C@@H]2CCCCO2)[C@H](C)O1 [pirarubicin]	96.9	92.4	89.7	68.4	20.7	103	92.7	86.7	59.1	27.4	104	101	87.4	38.3	0.8	98.9	99.5	99.4	84.6	1.1	102	98.1	96.7	73.5	40.6	1.25	0.622	0.619	1.95	1.12	7.9	9.6	13.5	8	6.3
O=C(O)c1cc(O)c2c3nc4ccccc4oc-3cc(=O)c2n1 [pirenoxine]	99.6	103	108	83.6	81.7	108	109	102	106	99.4	103	113	89.5	99.6	92.6	106	99.7	102	103	103	105	107	96.6	101	95	> 10	> 10	> 10	> 10	> 10	1.9	0	0	0	0
CN1C(C(=O)Nc2ccccn2)=C(O)c2ccccc2S1(=O)=O [piroxicam]	93.6	96	104	100	100	99.8	95.5	101	96.8	105	92	107	92.5	105	115	98.5	94.9	99.3	95.9	101	93.1	101	94.4	93.5	114	> 10	> 10	> 10	> 10	> 10	0	0	0	0	0
CC(C)NC(=N)NC(=N)Nc1ccc(Cl)cc1 [proguanil]	101	93.5	108	105	106	101	90.2	96	93.7	95.4	94.8	100	91.8	106	101	98	93.3	98.6	97.1	98.3	97	91.9	87.3	100	94.7	> 10	> 10	> 10	> 10	> 10	0	0	0	0	0
CC(C)[N+](C)(CCOC(=O)C1c2ccccc2Oc2ccccc21)C(C)C [propantheline]	86.1	95.3	105	91.7	105	93.8	101	108	108	109	107	99	103	110	93.6	96.9	95.6	102	96.9	102	108	108	98.8	104	101	> 10	> 10	> 10	> 10	> 10	0	0	0	0	0
Cc1ncc(CO)c(CO)c1O [pyridoxine]	96.4	80.3	94.3	105	88	92.2	97.2	97.1	98.5	98.6	98.5	105	91	96.2	107	96.7	94.2	98.1	94.6	96.8	102	105	97.8	108	106	> 10	> 10	> 10	> 10	> 10	0	0	0	0	0
COCCCOc1ccnc(C[S+]([O-])c2nc3ccccc3[nH]2)c1C (stereo not given) [rabeprazole]	99.4	102	97.3	94.8	95.6	98	92.7	98.6	103	100	97.6	106	91.9	94.6	95.8	102	97.4	100	99.9	100	98	108	94.3	105	100	> 10	> 10	> 10	> 10	> 10	0	0	0	0	0
